In patent US7582631B2, “Substituted heterocyclic compounds and methods of use” (Amgen Inc., priority 2004, dated 2009) one finds IC50 data, which are given here for 18 molecules.

One assay deals with human T cells. In words: Anti-CD3/anti-CD28-induced T cell IL-2 Secretion and Proliferation Assay. The assay is classed as cell-based. Conditions: list printed after the T cell IL-2 secretion/proliferation method, threshold 500 μM.
The next assay concerns whole human blood. Nature of the assay: Anti-CD3/anti-CD28-induced IL-2 Secretion in Whole Human Blood. The class given is cell-based. Conditions: 48 h, IL-2 by ELISA, threshold 5 μM. How it is done:
Anti-CD3/anti-CD28-induced IL-2Secretion in Whole Human Blood
The purpose of this assay is to test the potency of T cell receptor (TCR; CD3) and CD28 signaling pathway inhibitors in whole human blood. Anti-CD3 antibody (10 ug/mL; R&D Systems) is precoated on the wells of 96-well plates. Compounds are added in T-cell dilution media (Iscoves modified DMEM), supplemented with 0.1% human serum albumin, 5 uM Beta-mercaptoethanol, and 1×Pen/Strep/Glu. Compounds are tested in triplicate. 100 μL of whole human blood (collected in heparinized tubes) is added to each well and the plates are incubated for 30 minutes at 37° C., 5% CO2. Anti-CD28 antibody (2 ug/mL; R&D Systems) is diluted in T-cell dilution media and is added to the wells. The mixture is incubated for 48 h at 37° C., 5% CO2. The cells are then pelleted, and the supernatant collected and IL-2 production determined by ELISA (R&D Systems).

On to `CC(C)N1CC2CC1CN2c1nc(-c2ccnc(N[C@@H](C)c3ccccc3)c2)nc2ccccc12` (stereo partly drawn) [(S)-{4-[4-(5-Isopropyl-(1S,4S)-2,5-diaza-bicyclo[2.2.1]hept-2-yl)-quinazolin-2-yl]-pyridin-2-yl}-(1-phenyl-ethyl)-amine], for which the half-inhibitory concentration (IC50) with human T cells was less than 500 µM.

Take `CC(C)N1C[C@@H]2C[C@H]1CN2c1nn(-c2ccnc(N[C@@H](C)c3ccccc3)c2)c2ccccc12` [Example 44, (S)-{4-[3-(5-Isopropyl-(1S,4S)-2,5-diaza-bicyclo[2.2.1]hept-2-yl)-indazol-1-yl]-pyridin-2-yl}-(1-phenyl-ethyl)-amine]: the values for the half-maximal inhibitory concentration (IC50) in the assay with whole human blood and with human T cells were less than 5 µM and less than 500 µM, respectively.

As for `CC(C)N1C[C@@H]2C[C@H]1CN2c1nc(-c2ccnc(N[C@@H](C)c3ccccc3)c2)cc2nccn12` [Example 4, (S)-{4-[5-(5-Isopropyl-(1S,4S)-2,5-diaza-bicyclo[2.2.1]hept-2-yl)-imidazo[1,2-c]pyrimidin-7-yl]-pyridin-2-yl}-(1-phenyl-ethyl)-amine], the IC50 with whole human blood was less than 5 µM; in the assay with human T cells, less than 500 µM.

In the case of `CC(C)N1C[C@@H]2C[C@H]1CN2c1cc(-c2ccnc(N[C@@H](C)c3ccccc3)c2)nc2ccccc12` [Example 52, (S)-{4-[4-(5-Isopropyl-(1S,4S)-2,5-diaza-bicyclo[2.2.1]hept-2-yl)-quinolin-2-yl]-pyridin-2-yl}-(1-phenyl-ethyl)-amine], the IC50 is less than 5 µM in the assay on whole human blood and less than 500 µM in the assay with human T cells.

Molecule `CCN1C[C@@H]2C[C@H]1CN2c1nc(-c2ccnc(N[C@@H](C)c3ccccc3)c2)cc2nccn12` [Example 5, (S)-{4-[5-(5-Ethyl-(1S,4S)-2,5-diaza-bicyclo[2.2.1]hept-2-yl)-imidazo[1,2-c]pyrimidin-7-yl]-pyridin-2-yl}-(1-phenyl-ethyl)-amine] yielded a 50% inhibitory concentration (IC50) in the assay on whole human blood of less than 5 µM.

On to `c1ccc(CNc2cc(-n3nc(N4C[C@@H]5C[C@H]4CN5)c4ccccc43)ccn2)cc1` [Example 69], for which the figures for the concentration for half-maximal inhibition (IC50) in the assay on whole human blood and with human T cells were less than 5 µM and less than 500 µM, respectively.

On to `CCN1CC2CC1CN2c1nc(-c2ccnc(N[C@@H](C)c3ccccc3)c2)nc2ccccc12` (stereo partly drawn) [(S)-{4-[4-(5-Ethyl-(1S,4S)-2,5-diaza-bicyclo[2.2.1]hept-2-yl)-quinazolin-2-yl]-pyridin-2-yl}-(1-phenyl-ethyl)-amine], for which the IC50 with whole human blood was less than 5 µM.

As for `C[C@H](Nc1cc(-c2nc(N3C[C@@H]4C[C@H]3CN4)c3ccccc3n2)ccn1)c1ccccc1` [Example 49, {4-[4-((1S,4S)-2,5-Diaza-bicyclo[2.2.1]hept-2-yl)-quinazolin-2-yl]-pyridin-2-yl}-(S)-(1-phenyl-ethyl)-amine], the concentration for half-maximal inhibition (IC50) in the assay on whole human blood is less than 5 µM; with human T cells it was less than 500 µM.

`C[C@H](Nc1cc(-c2cc3nccn3c(N3C[C@@H]4C[C@H]3CN4)n2)ccn1)c1ccccc1` [Example 3, (S)-{4-[5-((1S,4S)-2,5-Diaza-bicyclo[2.2.1]hept-2-yl)-imidazo[1,2-c]pyrimidin-7-yl]-pyridin-2-yl}-(1-phenyl-ethyl)-amine]: the IC50 in the assay on whole human blood was less than 5 µM.

With `Fc1ccccc1CNc1cc(-c2cc3nccn3c(N3C[C@@H]4C[C@H]3CN4)n2)ccn1` [Example 57, {4-[5-((1S,4S)-2,5-Diaza-bicyclo[2.2.1]hept-2-yl)-imidazo[1,2-c]pyrimidin-7-yl]-pyridin-2-yl}-(2-fluoro-benzyl)-amine], the half-inhibitory concentration (IC50) in the assay with whole human blood was less than 5 µM; in the assay on human T cells it was less than 500 µM.

In the assay with human T cells, `C[C@H](Nc1cc(-c2nc(N3CC4CC3CN4C)c3ccccc3n2)ccn1)c1ccccc1` (stereo partly drawn) [(S)-{4-[4-(5-Methyl-(1S,4S)-2,5-diaza-bicyclo[2.2.1]hept-2-yl)-quinazolin-2-yl]-pyridin-2-yl}-(1-phenyl-ethyl)-amine] came in with an IC50 of less than 500 µM.

Regarding `C[C@H](Nc1cc(-n2nc(N3C[C@@H]4C[C@H]3CN4)c3ccccc32)ccn1)c1ccccc1F` [Example 24, (S)-{4-[3-((1S,4S)-2,5-Diaza-bicyclo[2.2.1]hept-2-yl)-indazol-1-yl]-pyridin-2-yl}-[1-(2-fluoro-phenyl)-ethyl]-amine], the IC50 in the assay on whole human blood was less than 5 µM.

On to `C[C@H](Nc1cc(-n2nc(N3C[C@@H]4C[C@H]3CN4)c3ccccc32)ccn1)c1ccccc1` [Example 43, (S)-{4-[3-((1s, 4S)-2,5-Diaza-bicyclo[2.2.1]hept-2-yl)-indazol-1-yl]-pyridin-2-yl}-(1-phenyl-ethyl)-amine], for which the half-inhibitory concentration (IC50) with human T cells was less than 500 µM.

In the assay with whole human blood, `CC(C)N1C[C@@H]2C[C@H]1CN2c1nccc(-c2ccnc(N[C@@H](C)c3ccccc3)c2)n1` [Example 66, (S)-{4-[2-(5-Isopropyl-(1S,4S)-2,5-diaza-bicyclo[2.2.1]hept-2-yl)-pyrimidin-4-yl]-pyridin-2-yl}-(1-phenyl-ethyl)-amine] gave an IC50 of less than 5 µM.

For the molecule `Fc1ccc2c(N3CC4CC3CN4)nn(-c3ccnc(NCc4ccccc4)c3)c2c1` [Benzyl-{4-[3-((1S,4S)-2,5-diaza-bicyclo[2.2.1]hept-2-yl)-6-fluoro-indazol-1-yl]-pyridin-2-yl}-amine], the values for the IC50 in the assay with whole human blood and in the assay on human T cells were less than 5 µM and less than 500 µM, respectively.

Molecule `C[C@H](Nc1cc(-c2cc(N3C[C@@H]4C[C@H]3CN4)c3ccccc3n2)ccn1)c1ccccc1` [Example 51, (S)-{4-[4-((1S,4S)-2,5-Diaza-bicyclo[2.2.1]hept-2-yl)-quinolin-2-yl]-pyridin-2-yl}-(1-phenyl-ethyl)-amine] came in with a half-inhibitory concentration (IC50) with human T cells of less than 500 µM.

The molecule `CC(C)N1C[C@@H]2C[C@H]1CN2c1nc(-c2ccnc(N[C@@H](C)c3ccccc3)c2)nc2ccccc12` [Example 65, (S)-{4-[4-(5-Isopropyl-(1S,4S)-2,5-diaza-bicyclo[2.2.1]hept-2-yl)-quinazolin-2-yl]-pyridin-2-yl}-(1-phenyl-ethyl)-amine] registered an IC50 in the assay on whole human blood of less than 5 µM.

Take `CCN1C[C@@H]2C[C@H]1CN2c1nc(-c2ccnc(N[C@@H](C)c3ccccc3)c2)nc2ccccc12` [Example 64, (S)-{4-[4-(5-Ethyl-(1S,4S)-2,5-diaza-bicyclo[2.2.1]hept-2-yl)-quinazolin-2-yl]-pyridin-2-yl}-(1-phenyl-ethyl)-amine]: in the assay on human T cells, the IC50 was less than 500 µM.
